Experimental findings from ChEMBL document CHEMBL1201862, “PubChem BioAssay data set” (2004) are described below.

Structures are written as SMILES.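 Results reflect a 48-hour exposure of cells in 96-well plates to compound at five concentrations. Abbreviation: GI50, concentration required for 50% inhibition of growth.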 Activity calls are given as the source filed them. Cut-off read from the data, not from the text of the source: active = GI50 up to about 1.1 µM and inactive = higher.

Among the test systems are HL-60; HOP-62; Hs-578T; K562; MCF7; MDA-MB-231; MDA-N; NCI-H226; SK-MEL-28; SNB-75; TK-10; U-251; UO-31; BT-549.
Holding throughout (assay): growth of human tumour cells (NCI), 48 h

Take `NC1CNC(=O)c2c(Cl)sc(Cl)c21` (configuration not stated): the GI50 in the assay on HL-60 is > 10 µM (inactive); in the assay with HOP-62, > 100 µM (inactive); in the assay with Hs-578T, > 100 µM (inactive); with K562 it was > 100 µM (inactive); in the assay with MCF7, > 100 µM (inactive); in the assay with MDA-MB-231, > 100 µM (inactive). Moreover, the GI50 in the assay on MDA-N, in the assay on NCI-H226, in the assay on SK-MEL-28, with SNB-75, in the assay with TK-10 and in the assay with U-251 was > 100 µM (inactive) in each case. For the same molecule, the GI50 in the assay with UO-31 was > 100 µM (inactive).
As to `COc1cc(/C=C2\N=C(c3ccccc3)N(c3ccc(S(=O)(=O)Nc4nccs4)cc3)C2=O)ccc1O`, the GI50 in the assay on BT-549 is 73.6 µM (inactive); with HL-60, 51.2 µM (inactive); in the assay on HOP-62, 61.8 µM (inactive); with Hs-578T, > 100 µM (inactive); in the assay with K562, 55.8 µM (inactive); in the assay with MCF7 it was 67.1 µM (inactive). Moreover, the GI50 with NCI-H226 was 71 µM (inactive); in the assay on SNB-75, 62.8 µM (inactive); with TK-10, > 100 µM (inactive); in the assay on U-251, 75.5 µM (inactive); with UO-31, > 100 µM (inactive).
Regarding `CCCCNC(=O)Nc1c(C(N)=O)c2n(c1C(=O)OCC)CCCCC2`, the GI50 in the assay on BT-549 was > 100 µM (inactive); with HL-60 it was > 100 µM (inactive); with HOP-62 it was > 100 µM (inactive); in the assay with Hs-578T, 64.9 µM (inactive); in the assay with K562, > 100 µM (inactive); in the assay with MCF7, > 100 µM (inactive). The GI50 in the assay with MDA-MB-231 is 21.3 µM (inactive); with NCI-H226 it was 3.89 µM (inactive); with SK-MEL-28, > 100 µM (inactive); with SNB-75, > 100 µM (inactive); in the assay with TK-10 it was > 100 µM (inactive); with U-251, > 100 µM (inactive). For the same molecule, in the assay on UO-31, the GI50 is > 100 µM (inactive).
For the molecule `COc1cc(/C=N/N=C(\N)NO)cc(OC)c1OC`, the GI50 in the assay with HL-60 is 23 µM (inactive); in the assay on HOP-62, 27.4 µM (inactive); in the assay with Hs-578T, 42.2 µM (inactive); in the assay on K562, 21.6 µM (inactive); in the assay with MCF7, 22.6 µM (inactive); in the assay on MDA-MB-231 it was > 100 µM (inactive). For the same molecule, the GI50 is 20.5 µM (inactive) in the assay on NCI-H226; 57 µM (inactive) in the assay with SK-MEL-28; > 100 µM (inactive) with TK-10; 52.2 µM (inactive) with U-251; 33.1 µM (inactive) in the assay on UO-31.
Regarding `Cn1c2c(c3ccccc31)CC(=O)N1CCCC(C1)CC21OCCO1` (configuration not stated), the GI50 in the assay on BT-549, in the assay with HL-60, in the assay on HOP-62, in the assay on K562, in the assay with MCF7 and in the assay on MDA-MB-231 was > 100 µM (inactive) each time. In addition, the GI50 in the assay with MDA-N is 33.5 µM (inactive); in the assay with NCI-H226 it was > 100 µM (inactive); with SK-MEL-28, > 100 µM (inactive); in the assay with SNB-75, > 100 µM (inactive); with TK-10, > 100 µM (inactive); in the assay with U-251 it was > 100 µM (inactive). The GI50 in the assay on UO-31 is > 100 µM (inactive).
As to `COC(=O)C[C@H](COCc1ccccc1)NC(=O)C[C@H](COCc1ccccc1)NC(=O)OC(C)(C)C`, the GI50 in the assay with BT-549 was 20.7 µM (inactive); in the assay on HL-60, > 100 µM (inactive); in the assay with HOP-62, 21.6 µM (inactive); in the assay on Hs-578T it was 26.4 µM (inactive); in the assay on K562 it was 40.2 µM (inactive); in the assay with MCF7, 19.8 µM (inactive). Besides, the GI50 was 36.6 µM (inactive) with MDA-MB-231; > 100 µM (inactive) in the assay with NCI-H226; > 100 µM (inactive) in the assay on SK-MEL-28; 25.1 µM (inactive) in the assay on SNB-75; 27.9 µM (inactive) in the assay with U-251; 32.5 µM (inactive) in the assay on UO-31.
With `CC1=NN(c2nc(N)nc(CSCc3nc(N)nc(N(C)C)n3)n2)C(C)(C)C1`, the GI50 in the assay with BT-549 is > 100 µM (inactive); with HL-60 it was > 100 µM (inactive); with HOP-62, > 100 µM (inactive); in the assay with Hs-578T, > 100 µM (inactive); in the assay on K562, 18.2 µM (inactive); with MCF7, > 100 µM (inactive). In addition, the GI50 in the assay on MDA-MB-231 is > 100 µM (inactive); in the assay with NCI-H226 it was > 100 µM (inactive); with SK-MEL-28, > 100 µM (inactive); with SNB-75 it was 60.5 µM (inactive); in the assay with TK-10, > 100 µM (inactive); in the assay with U-251, > 100 µM (inactive). In addition, the GI50 with UO-31 is > 100 µM (inactive).
On to `Brc1cccc(C2(CCCC3(c4cccc(Br)n4)OCCO3)OCCO2)n1`, for which the GI50 in the assay with BT-549, with HOP-62, in the assay with K562, with MCF7, in the assay with MDA-MB-231 and in the assay on MDA-N was > 100 µM (inactive) in each case. Further, the GI50 with NCI-H226 is > 100 µM (inactive); with SK-MEL-28, > 100 µM (inactive); in the assay on SNB-75, 23.9 µM (inactive); in the assay on TK-10 it was > 100 µM (inactive); in the assay with UO-31 it was > 100 µM (inactive).
For `O=C1OC2(C(F)(F)F)Oc3ccccc3CN2C12CCCCC2` (configuration not stated), the GI50 in the assay with BT-549 is 28.4 µM (inactive); in the assay on HL-60, 16.5 µM (inactive); with HOP-62, 29.2 µM (inactive); with K562, 20.4 µM (inactive); in the assay with MCF7 it was 39.1 µM (inactive); in the assay with MDA-MB-231, 24.2 µM (inactive). Also, the GI50 is 29.1 µM (inactive) in the assay on MDA-N; 27.4 µM (inactive) with NCI-H226; 55.2 µM (inactive) in the assay with SK-MEL-28; 16 µM (inactive) in the assay with SNB-75; 46.2 µM (inactive) in the assay with TK-10; 26 µM (inactive) in the assay on U-251. In the assay on UO-31, the GI50 is 22.9 µM (inactive).
Consider `O=c1c2c(F)c(F)c(F)c(F)c2sc2nccn12`, for which the GI50 in the assay with HL-60 was 2.06 µM (inactive); in the assay on HOP-62, 22.4 µM (inactive); with Hs-578T, 31.3 µM (inactive); with K562 it was 6.55 µM (inactive); with MCF7, 17.4 µM (inactive); with MDA-MB-231 it was 20.3 µM (inactive). Besides, the GI50 in the assay on MDA-N was 14.4 µM (inactive); in the assay on NCI-H226, 25.2 µM (inactive); in the assay on SK-MEL-28, 23.4 µM (inactive); with SNB-75, 22.5 µM (inactive); with TK-10, 18.4 µM (inactive); with U-251, 14.9 µM (inactive).
Regarding `OCC1OC(n2nc(-c3ccccc3)nc2-c2cnccn2)C(O)C(O)C1O` (configuration not stated), the GI50 with BT-549, in the assay on HL-60, in the assay with HOP-62, with K562, with MCF7 and in the assay on MDA-MB-231 was > 100 µM (inactive) each time. The GI50 in the assay on MDA-N, in the assay with SK-MEL-28, in the assay with SNB-75, in the assay with U-251 and with UO-31 was > 100 µM (inactive) throughout.
Consider `COc1cccc(-c2cc(=O)c3cc(N4CCCCC4)ccc3[nH]2)c1`, for which the GI50 in the assay on HL-60 was < 0.01 µM (active); in the assay with HOP-62, < 0.0145 µM (active); with Hs-578T, < 0.014 µM (active); in the assay with K562, < 0.01 µM (active); in the assay with MCF7, < 0.01 µM (active); in the assay on MDA-MB-231, 0.0432 µM (active). Besides, the GI50 in the assay with MDA-N was < 0.01 µM (active); with NCI-H226, 0.0127 µM (active); in the assay on SK-MEL-28 it was > 100 µM (inactive); with SNB-75, 0.6 µM (active); in the assay on TK-10, 79.3 µM (inactive); in the assay on U-251, < 0.0147 µM (active). In addition, the GI50 with UO-31 is 7.29 µM (inactive).
For `CC[N+](CC)(CC)/C(=N\S(=O)(=O)c1ccc(Cl)cc1)[N-]S(=O)(=O)c1cc(C)c(Cl)cc1S`, the GI50 was 53.8 µM (inactive) with HL-60; 52 µM (inactive) with HOP-62; > 100 µM (inactive) in the assay on Hs-578T; 6.65 µM (inactive) in the assay on K562; 53.2 µM (inactive) with MCF7; > 100 µM (inactive) in the assay with MDA-MB-231. In addition, the GI50 in the assay with MDA-N is > 100 µM (inactive); in the assay on NCI-H226 it was 32.1 µM (inactive); in the assay with SK-MEL-28 it was > 100 µM (inactive); with TK-10, 58.7 µM (inactive); with U-251, 43.1 µM (inactive); with UO-31, > 100 µM (inactive).
For `C[C@]12C[C@@H](OC(=O)[C@]1(C)O)[C@@H]([C@]1(O)CC[C@H]3[C@@H]4C[C@H]5O[C@]56C[C@H]5O[C@H]5C(=O)[C@]6(C)[C@H]4CC[C@@]31C)C2`, the GI50 in the assay on HL-60, in the assay with HOP-62, in the assay with Hs-578T, with K562, in the assay with MCF7 and in the assay on MDA-MB-231 was > 50 µM (inactive) each time. In addition, the GI50 with MDA-N was > 50 µM (inactive); in the assay with NCI-H226, > 50 µM (inactive); with SK-MEL-28, > 50 µM (inactive); with SNB-75 it was 36 µM (inactive); in the assay with TK-10, > 50 µM (inactive); with U-251, > 50 µM (inactive). Further, the GI50 with UO-31 was > 50 µM (inactive).
As for `O=C(O)c1cc2cc(OCc3ccccc3)ccc2[nH]1`, the GI50 is > 100 µM (inactive) in the assay with HL-60; > 100 µM (inactive) in the assay on HOP-62; 4.72 µM (inactive) with Hs-578T; > 100 µM (inactive) in the assay with K562; 88.1 µM (inactive) in the assay on MCF7; > 100 µM (inactive) with MDA-MB-231. The GI50 in the assay on MDA-N was > 100 µM (inactive); with NCI-H226 it was 23.4 µM (inactive); in the assay with SK-MEL-28 it was 4.01 µM (inactive); in the assay on TK-10 it was > 100 µM (inactive); with U-251, > 100 µM (inactive); in the assay on UO-31 it was > 100 µM (inactive).
As to `COc1ccc(C2=C(OC(=O)N(C)C)c3cccn3-c3cc(Cl)ccc3S2)cc1`, the GI50 is 6.1 µM (inactive) in the assay on HL-60; > 10 µM (inactive) with HOP-62; 8.91 µM (inactive) in the assay with K562; 8.51 µM (inactive) with MCF7; > 10 µM (inactive) with MDA-MB-231; > 10 µM (inactive) in the assay with MDA-N. The GI50 in the assay with SK-MEL-28, in the assay with SNB-75 and in the assay with TK-10 was > 10 µM (inactive) each time.
